Experimental data as given in patent US9822103B2, “Inhibitors of lysine methyl transferase” (priority 2013, dated 2017).

Target: recombinant EZH2-641F complex (EZH2 Y641F/EED/SUZ12/RbAp48/AEBP2) (Homo sapiens (Human), UniProt Q15910, Y641F)
Experiment: EZH2 Histone Methyl Transferase Assay (scintillation proximity assay)
Type: biochemical
Settings: 350 nM histone peptide substrate, 500 nM 3H-SAM, 3 hours room temperature
Method: EZH2 Histone Methyl Transferase Assay
The effectiveness of compounds of the present invention as inhibitors of histone methyl transferases can be readily tested by assays known to those skilled in the art. For example, in vitro histone methyl transferase assays may be conducted with a relevant purified histone methyl transferase and an appropriate synthetic substrate to determine the inhibitory activity of the compounds. Assays for inhibition of EZH2 by the instant compounds were performed in 384-well plates with reaction mixtures containing 350 nM of histone peptide substrate (ATKAAR-K(Me2)-SAPATGGVKKPHRYRPG-GK(Biotin), 500 nM S-[methyl-^3H]adenosyl-L-methionine (55-85 Ci/mmol), 50 mM Tris-HCl (pH 9.0), 50 mM NaCl, 1 mM dithiothreitol, Tween-20 at 0.01% and fatty-acid free bovine serum albumin at 0.01%, and recombinant EZH2-641F complex (EZH2 Y641F/EED/SUZ12/RbAp48/AEBP2) at 5 nM (>98% purity, BPS Bioscience) or 15 nM (50% purity, in-house). Reaction mixtures were incubated at room temperature for 3 hours, and the reactions were terminated by 0.005% poly-L-lysine solution in 20 mM Tris-HCl (pH 7.5) and 150 mM NaCl. Reaction products were captured by binding to strepavidin-conjugated imaging beads. Incorporation of radioactive methyl group into the histone peptide substrate was determined in Leadseeker (GE Healthcare) by means of scintillation proximity assay. Dose response curves were generated to determine the concentration required to inhibit 50% of methyl transferase activity (EC50). Compounds were dissolved at 10 mM in dimethylsulfoxide (DMSO) and evaluated at eleven concentrations. EC50 values were derived by non-linear regression analysis.

recombinant EZH2-641F complex (EZH2 Y641F/EED/SUZ12/RbAp48/AEBP2), sequence (Q15910 whole entry Y641F): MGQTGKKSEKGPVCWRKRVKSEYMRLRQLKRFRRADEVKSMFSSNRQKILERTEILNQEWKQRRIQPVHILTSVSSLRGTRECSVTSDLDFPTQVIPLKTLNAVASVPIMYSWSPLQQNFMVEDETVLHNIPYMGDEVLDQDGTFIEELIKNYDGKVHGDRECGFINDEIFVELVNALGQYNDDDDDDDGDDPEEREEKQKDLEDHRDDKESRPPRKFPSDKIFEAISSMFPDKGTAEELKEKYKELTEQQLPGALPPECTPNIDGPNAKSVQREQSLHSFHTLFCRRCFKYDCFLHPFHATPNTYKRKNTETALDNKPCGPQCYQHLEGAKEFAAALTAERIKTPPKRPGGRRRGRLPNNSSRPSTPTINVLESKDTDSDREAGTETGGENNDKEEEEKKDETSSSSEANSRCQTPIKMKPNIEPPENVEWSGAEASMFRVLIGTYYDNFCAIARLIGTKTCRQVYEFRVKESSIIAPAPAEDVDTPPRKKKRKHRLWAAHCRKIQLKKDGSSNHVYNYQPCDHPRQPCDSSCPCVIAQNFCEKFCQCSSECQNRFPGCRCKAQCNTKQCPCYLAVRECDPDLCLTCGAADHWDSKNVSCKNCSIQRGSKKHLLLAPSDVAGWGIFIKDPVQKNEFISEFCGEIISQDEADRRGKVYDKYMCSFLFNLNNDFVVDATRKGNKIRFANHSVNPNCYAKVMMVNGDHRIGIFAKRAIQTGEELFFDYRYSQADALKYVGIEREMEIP
recombinant EZH2-641F complex (EZH2 Y641F/EED/SUZ12/RbAp48/AEBP2), sequence (O75530 whole entry partner): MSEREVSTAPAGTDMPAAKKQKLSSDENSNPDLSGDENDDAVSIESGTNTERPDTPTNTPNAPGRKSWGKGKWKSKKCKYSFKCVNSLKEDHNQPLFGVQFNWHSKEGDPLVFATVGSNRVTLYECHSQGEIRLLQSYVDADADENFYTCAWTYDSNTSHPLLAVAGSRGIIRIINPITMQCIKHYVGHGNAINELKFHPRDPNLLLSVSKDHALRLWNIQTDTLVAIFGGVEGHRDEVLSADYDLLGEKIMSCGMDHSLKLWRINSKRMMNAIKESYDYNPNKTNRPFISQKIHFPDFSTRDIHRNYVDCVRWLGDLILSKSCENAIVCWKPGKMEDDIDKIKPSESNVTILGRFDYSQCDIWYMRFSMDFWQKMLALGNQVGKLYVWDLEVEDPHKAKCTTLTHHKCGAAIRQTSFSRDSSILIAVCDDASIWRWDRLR
recombinant EZH2-641F complex (EZH2 Y641F/EED/SUZ12/RbAp48/AEBP2), sequence (Q15022 whole entry partner): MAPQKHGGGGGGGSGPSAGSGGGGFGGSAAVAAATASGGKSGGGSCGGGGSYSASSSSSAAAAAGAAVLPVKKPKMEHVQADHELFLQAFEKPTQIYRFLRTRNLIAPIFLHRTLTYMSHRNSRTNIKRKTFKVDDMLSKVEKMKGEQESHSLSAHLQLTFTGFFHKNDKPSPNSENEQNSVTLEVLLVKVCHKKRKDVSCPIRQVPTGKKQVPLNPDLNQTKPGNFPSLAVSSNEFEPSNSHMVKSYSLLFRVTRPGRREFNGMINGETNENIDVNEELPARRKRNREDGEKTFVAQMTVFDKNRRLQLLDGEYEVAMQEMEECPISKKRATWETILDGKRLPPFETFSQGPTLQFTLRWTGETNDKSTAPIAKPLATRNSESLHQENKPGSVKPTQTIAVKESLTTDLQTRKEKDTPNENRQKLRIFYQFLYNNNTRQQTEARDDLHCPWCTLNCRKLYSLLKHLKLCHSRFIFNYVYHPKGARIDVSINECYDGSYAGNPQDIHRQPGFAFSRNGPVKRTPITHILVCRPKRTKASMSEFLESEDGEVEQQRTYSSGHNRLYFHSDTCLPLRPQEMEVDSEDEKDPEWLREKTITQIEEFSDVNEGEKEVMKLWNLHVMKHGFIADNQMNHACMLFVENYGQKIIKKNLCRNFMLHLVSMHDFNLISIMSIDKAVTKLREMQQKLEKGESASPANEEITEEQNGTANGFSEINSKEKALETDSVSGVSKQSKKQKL
recombinant EZH2-641F complex (EZH2 Y641F/EED/SUZ12/RbAp48/AEBP2), sequence (Q09028 whole entry partner): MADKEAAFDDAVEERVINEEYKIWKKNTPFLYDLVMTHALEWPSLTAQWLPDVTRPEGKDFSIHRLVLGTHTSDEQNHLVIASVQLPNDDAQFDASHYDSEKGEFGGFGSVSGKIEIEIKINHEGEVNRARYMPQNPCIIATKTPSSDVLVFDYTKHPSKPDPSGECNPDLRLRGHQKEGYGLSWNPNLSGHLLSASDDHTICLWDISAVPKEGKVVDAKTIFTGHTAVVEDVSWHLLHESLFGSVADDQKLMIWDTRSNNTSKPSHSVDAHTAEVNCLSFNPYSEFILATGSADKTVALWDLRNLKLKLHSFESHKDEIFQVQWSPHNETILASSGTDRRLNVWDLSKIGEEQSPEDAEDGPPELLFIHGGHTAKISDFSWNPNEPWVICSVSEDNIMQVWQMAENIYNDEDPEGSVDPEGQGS
recombinant EZH2-641F complex (EZH2 Y641F/EED/SUZ12/RbAp48/AEBP2), sequence (Q6ZN18 whole entry partner): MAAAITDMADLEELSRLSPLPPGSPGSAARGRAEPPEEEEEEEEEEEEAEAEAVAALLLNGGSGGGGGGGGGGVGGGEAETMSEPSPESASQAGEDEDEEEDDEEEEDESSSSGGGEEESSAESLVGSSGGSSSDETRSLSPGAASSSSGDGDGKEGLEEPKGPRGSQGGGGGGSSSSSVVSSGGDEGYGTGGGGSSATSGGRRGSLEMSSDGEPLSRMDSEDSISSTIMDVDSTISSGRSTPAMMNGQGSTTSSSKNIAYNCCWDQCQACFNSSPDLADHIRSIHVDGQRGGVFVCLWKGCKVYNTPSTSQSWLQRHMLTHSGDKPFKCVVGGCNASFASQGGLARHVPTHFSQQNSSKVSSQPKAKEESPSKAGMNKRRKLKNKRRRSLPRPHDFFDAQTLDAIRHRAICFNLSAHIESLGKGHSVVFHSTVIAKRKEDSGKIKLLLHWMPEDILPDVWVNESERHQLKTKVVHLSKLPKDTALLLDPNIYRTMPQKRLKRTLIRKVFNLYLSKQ

Structure (SMILES)	IC50 [µM]
Cc1cc(C)c(CNC(=O)c2cc3c(c(-c4cnc(N5CCN(C(=O)OC(C)(C)C)CC5)nc4)c2)OC2(CCCC2)C3)c(=O)[nH]1 [Example 73, tert-Butyl 4-(5-(5-(((4,6-dimethyl-2-oxo-1,2-dihydropyridin-3-yl)methyl)carbamoyl)-3H-spiro[benzofuran-2,1′-cyclopentan]-7-yl)pyrimidin-2-yl)piperazine-1-carboxylate]	> 1
Cc1cc(C)c(CNC(=O)c2cc(Br)c3c(c2)CC(C)CCO3)c(=O)[nH]1 (stereo not drawn) [Example 45, 9-Bromo-N-((4,6-dimethyl-2-oxo-1,2-dihydropyridin-3-yl)methyl)-4-methyl-2,3,4,5-tetrahydrobenzo[b]oxepine-7-carboxamide]	> 1
CCCc1cc(C)[nH]c(=O)c1CNC(=O)c1cc(Cl)c2c(c1)CC(C)(C)O2 [Example 23, 7-Chloro-2,2-dimethyl-N-((6-methyl-2-oxo-4-propyl-1,2-dihydropyridin-3-yl)methyl)-2,3-dihydrobenzofuran-5-carboxamide]	> 1
Cc1cc(C)c(CNC(=O)c2cc3c(c(-c4ccc(N5CCOCC5)nc4)c2)OC(C)(C)C3)c(=O)[nH]1 [Example 12, N-((4,6-Dimethyl-2-oxo-1,2-dihydropyridin-3-yl)methyl)-2,2-dimethyl-7-(6-morpholinopyridin-3-yl)-2,3-dihydrobenzofuran-5-carboxamide]	< 0.5
COc1ccc(-c2cc(C(=O)NCc3c(C)cc(C)[nH]c3=O)cc3c2O[C@@]2(C)CCC[C@@H]32)cn1 (racemic) [Example 66, rac-(3aS,8bS)—N-((4,6-Dimethyl-2-oxo-1,2-dihydropyridin-3-yl)methyl)-5-(6-methoxypyridin-3-yl)-3a-methyl-2,3,3a,8b-tetrahydro-1H-cyclopenta[b]benzofuran-7-carboxamide]	0.5 to 1

Now from value to compound:

IC50 [µM]	Structure (SMILES)
> 1	Cc1cc(C)c(CNC(=O)c2cc(Cc3ccccc3)c3c(c2)CC(C)(C)O3)c(=O)[nH]1 [Example 21, 7-Benzyl-N-((4,6-dimethyl-2-oxo-1,2-dihydropyridin-3-yl)methyl)-2,2-dimethyl-2,3-dihydrobenzofuran-5-carboxamide]
> 1	Cc1cc(C)c(CNC(=O)c2cc3c(c(-c4ccc(CN5CCOCC5)cc4)c2)OC(C)CCC3)c(=O)[nH]1 (stereo not drawn) [Example 50, N-((4,6-Dimethyl-2-oxo-1,2-dihydropyridin-3-yl)methyl)-2-methyl-9-(4-(morpholinomethyl)phenyl)-2,3,4,5-tetrahydrobenzo[b]oxepine-7-carboxamide]
< 0.5	Cc1cc(C)c(CNC(=O)c2cc(Br)c3c(c2)CC(C)(C)O3)c(=O)[nH]1 [Example 1, 7-Bromo-N-((4,6-dimethyl-2-oxo-1,2-dihydropyridin-3-yl)methyl)-2,2-dimethyl-2,3-dihydrobenzofuran-5-carboxamide]
> 1	Cc1cc(C)c(CNC(=O)c2ccc3c(c2C)CC(C)(C)O3)c(=O)[nH]1 [Example 8, N-((4,6-Dimethyl-2-oxo-1,2-dihydropyridin-3-yl)methyl)-2,2,4-trimethyl-2,3-dihydrobenzofuran-5-carboxamide]
> 1	C=CC1(C)Cc2cc(C(=O)NCc3c(C)cc(C)[nH]c3=O)cc(-c3ccc(OC)nc3)c2O1 (stereo not drawn) [Example 56, N-((4,6-Dimethyl-2-oxo-1,2-dihydropyridin-3-yl)methyl)-7-(6-methoxypyridin-3-yl)-2-methyl-2-vinyl-2,3-dihydrobenzofuran-5-carboxamide]
0.5 to 1	C=C(C)C1(C)Cc2cc(C(=O)NCc3c(C)cc(C)[nH]c3=O)cc(-c3ccc(OC)nc3)c2O1 (stereo not drawn) [Example 83, N-((4,6-dimethyl-2-oxo-1,2-dihydropyridin-3-yl)methyl)-7-(6-methoxypyridin-3-yl)-2-methyl-2-(prop-1-en-2-yl)-2,3-dihydrobenzofuran-5-carboxamide]
> 1	COc1ccc(-c2cc(C(=O)NCc3c(C)cc(C)[nH]c3=O)cc3c2OC(C)CCC3)cn1 (stereo not drawn) [Example 52, N-((4,6-Dimethyl-2-oxo-1,2-dihydropyridin-3-yl)methyl)-9-(6-methoxypyridin-3-yl)-2-methyl-2,3,4,5-tetrahydrobenzo[b]oxepine-7-carboxamide]
